The subject of one assay is Jurkat cells. The experiment in a line: IL-2 secretion assay in Jurkat cells activated with CD3/CD28 T Cell Activator. The settings on record: Homo sapiens, 24 h, read-out: IL-2 Secretion (EC50). It counts as cell-based. The protocol:
Certain compounds were also evaluated in an IL-2 secretion assay. On the day of the assay, a 16 point, 1:2 master serial dilution of each compound was prepared in Opti-MEM to span a final concentration range of 10 μM to 300 pM. Assays were set up in CORNING® tissue culture-treated 384-well microplates containing 60 nL of each dilution. Jurkat cells grown in RPMI-1640 supplemented with 10% FBS, 1% Glutamax, and 1% Pen/Strep were collected, resuspended in Opti-MEM. 50,000 cells/well and added to the compound plates. After a short spin (1200 rpm for 1 min), the plates were incubated at 37° C. for 1 hour. The cells were activated by adding 15 μL of IMMUNOCULT™ Human CD3/CD28 T Cell Activator (STEMCELL Technologies) diluted in Opti-MEM. After 24 h of incubation at 37° C., aliquots of culture supernatants were transferred to OptiPlate-384 (PerkinElmer) microplates. The level of IL-2 secretion in the supernatants was then determined using the IL-2 (human) AlphaLISA Detection Kit (PerkinElmer) according to the manufacturer's recommendations. The AlphaLISA signal was measured using an EnVision plate reader (PerkinElmer). EC50 values were determined by fitting the data to a standard 4-parameter logistic equation. See Table 7 for data for select compounds (IL-2 Secretion (EC50)).

Another assay has as its target T1, Cbl-b (Homo sapiens, UniProt Q13191).
T1 construct: biotin (biotinylated protein)
The experiment in a line: Cbl-b probe displacement HTRF binding assay. The settings on record: 0.4 nM Cbl-b, 150 nM BODIPY probe. In short, it runs like this:
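Compound competes with BODIPY probe (150 nM) for biotinylated Cbl-b (0.4 nM) in HEPES/NaCl/Triton/TCEP/BSA buffer; 60 min preincubation, 15 min with probe, room temperature. Tb-streptavidin HTRF read; % displacement vs DMSO and no-protein controls, IC50 from four-parameter fit.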

[1] abbreviates: Jurkat cells, CD3/CD28 T Cell Activator, IL-2 AlphaLISA.

What is called EC50 is the concentration needed to bring the measured effect to its halfway point. For orientation: IC50 means the concentration needed to halve the response being measured. Read a low IC50 as greater potency.

Like-named read-outs stand apart in the source and are kept apart here. Where only a bound is given, the exact number is not on record here.

T1 sequence (Q13191 whole entry, species assumed): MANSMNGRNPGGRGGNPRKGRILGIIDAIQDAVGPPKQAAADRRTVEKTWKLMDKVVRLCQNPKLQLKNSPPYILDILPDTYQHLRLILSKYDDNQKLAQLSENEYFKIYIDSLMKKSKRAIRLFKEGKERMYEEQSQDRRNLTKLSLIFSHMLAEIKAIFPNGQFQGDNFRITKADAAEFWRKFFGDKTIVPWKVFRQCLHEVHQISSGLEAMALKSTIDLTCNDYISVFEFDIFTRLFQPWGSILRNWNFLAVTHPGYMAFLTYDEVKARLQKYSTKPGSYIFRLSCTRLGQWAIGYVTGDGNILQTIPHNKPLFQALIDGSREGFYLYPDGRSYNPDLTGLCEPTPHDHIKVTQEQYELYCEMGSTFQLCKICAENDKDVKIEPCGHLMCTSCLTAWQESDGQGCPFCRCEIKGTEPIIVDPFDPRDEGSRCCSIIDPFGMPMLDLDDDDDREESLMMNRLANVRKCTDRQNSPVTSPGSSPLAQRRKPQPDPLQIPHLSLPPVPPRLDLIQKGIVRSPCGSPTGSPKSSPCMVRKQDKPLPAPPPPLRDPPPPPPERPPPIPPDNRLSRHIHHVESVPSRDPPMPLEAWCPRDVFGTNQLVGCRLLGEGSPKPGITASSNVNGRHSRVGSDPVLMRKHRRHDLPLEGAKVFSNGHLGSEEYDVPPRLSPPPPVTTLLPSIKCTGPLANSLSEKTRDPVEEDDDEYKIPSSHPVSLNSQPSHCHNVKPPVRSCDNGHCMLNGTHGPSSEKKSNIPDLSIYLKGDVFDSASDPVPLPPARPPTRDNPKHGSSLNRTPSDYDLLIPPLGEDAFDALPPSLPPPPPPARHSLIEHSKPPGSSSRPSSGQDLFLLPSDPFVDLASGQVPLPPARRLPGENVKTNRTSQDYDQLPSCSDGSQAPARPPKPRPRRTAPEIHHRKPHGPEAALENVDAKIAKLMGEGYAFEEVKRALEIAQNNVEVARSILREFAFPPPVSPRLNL

As to `C[C@H]1CCCN(Cc2cc(C(=O)Nc3cc(-c4ccc(C#N)cc4-c4nncn4C)cc(C4CC4)n3)c(=O)n(C3CC3)c2)C1` [Example 1, N-{4-[4-cyano-2-(4-methyl-4H-1,2,4-triazol-3-yl)phenyl]-6-cyclopropyl-2-pyridyl}-5-{[(S)-3-methyl-1-piperidyl]methyl}-1-cyclopropyl-2-oxo-1,2-dihydronicotinamide], in the assay on Jurkat cells (Jurkat), the EC50 is below 100 nM. For the same molecule, the IC50 at Cbl-b was below 100 nM.

As for `C[C@H]1CCCN(Cc2cc(C(=O)Nc3cc(-c4ccc(F)cc4-c4nncn4C)cc(C4CC4)n3)c(=O)n(C3CC3)c2)C1` [Example 2, 1-Cyclopropyl-N-[6-cyclopropyl-4-[4-fluoro-2-(4-methyl-1,2,4-triazol-3-yl)phenyl]pyridin-2-yl]-5-[[(3S)-3-methylpiperidin-1-yl]methyl]-2-oxopyridine-3-carboxamide], the EC50 in the assay with Jurkat cells (setting [1]) is below 100 nM. Also, the IC50 on Cbl-b is below 100 nM.

Consider `COCCNCc1cc(C(=O)Nc2cc(-c3ccc(C#N)cc3-c3nncn3C)cc(C3CC3)n2)c(=O)n(C2CC2)c1` [Example 3, N-[4-[4-cyano-2-(4-methyl-1,2,4-triazol-3-yl)phenyl]-6-cyclopropylpyridin-2-yl]-1-cyclopropyl-5-[(2-methoxyethylamino)methyl]-2-oxopyridine-3-carboxamide], for which, in the assay with Jurkat cells (setting [1]), the EC50 is below 100 nM. The molecule also showed an IC50 on Cbl-b below 100 nM.

In the case of `COCCNCc1cc(C(=O)Nc2cc(-c3ccc(F)cc3-c3nncn3C)cc(C3CC3)n2)c(=O)n(C2CC2)c1` [Example 4, 1-cyclopropyl-N-[6-cyclopropyl-4-[4-fluoro-2-(4-methyl-1,2,4-triazol-3-yl)phenyl]pyridin-2-yl]-5-[(2-methoxyethylamino)methyl]-2-oxopyridine-3-carboxamide], the 50% effective concentration (EC50) in the assay on Jurkat cells (setting [1]) is below 100 nM. The IC50 on Cbl-b is below 100 nM.

In the case of `CCOc1cc(-c2ccc(F)cc2-c2nncn2C)cc(NC(=O)c2cc(CNCCOC)cn(C3CC3)c2=O)n1` [Example 5, 1-cyclopropyl-N-[6-ethoxy-4-[4-fluoro-2-(4-methyl-1,2,4-triazol-3-yl)phenyl]pyridin-2-yl]-5-[(2-methoxyethylamino)methyl]-2-oxopyridine-3-carboxamide], the EC50 in the assay on Jurkat cells (setting [1]) was below 100 nM. The molecule further had an IC50 at Cbl-b below 100 nM.

For the molecule `COCCN(C)Cc1cc(C(=O)Nc2cc(-c3ccc(F)cc3-c3nncn3C)cc(C3CC3)n2)c(=O)n(C2CC2)c1` [Example 6, N-{6-cyclopropyl-4-[4-fluoro-2-(4-methyl-4H-1,2,4-triazol-3-yl)phenyl]-2-pyridyl}-1-cyclopropyl-5-{[(2-methoxyethyl)-N-methylamino]methyl}-2-oxo-1,2-dihydronicotinamide], in the assay on Jurkat cells (setting [1]), the EC50 fell in the range of 1000 to 5000 nM. This molecule also had an IC50 at Cbl-b below 100 nM.

As for `C[C@H]1CCCN(Cc2cc(C(=O)Nc3cc(-c4ccc(C#N)cc4-c4nncn4C(F)F)cc(C4CC4)n3)c(=O)n(C3CC3)c2)C1` [Example 7, N-(4-{4-cyano-2-[4-(difluoromethyl)-4H-1,2,4-triazol-3-yl]phenyl}-6-cyclopropyl-2-pyridyl)-5-{[(S)-3-methyl-1-piperidyl]methyl}-1-cyclopropyl-2-oxo-1,2-dihydronicotinamide], in the assay on Jurkat cells (setting [1]), the EC50 is below 100 nM. Also, the IC50 at Cbl-b was below 100 nM.

`C[C@H]1CCCN(Cc2cc(C(=O)Nc3cc(-c4ccc(C#N)cc4-c4nncn4C(F)F)cc(N)n3)c(=O)n(C3CC3)c2)C1` [Example 8, N-(6-amino-4-{4-cyano-2-[4-(difluoromethyl)-4H-1,2,4-triazol-3-yl]phenyl}-2-pyridyl)-5-{[(S)-3-methyl-1-piperidyl]methyl}-1-cyclopropyl-2-oxo-1,2-dihydronicotinamide]: the concentration for a half-maximal effect (EC50) in the assay on Jurkat cells (setting [1]) lay within 100 to 1000 nM. The same molecule registered an IC50 at Cbl-b below 100 nM.

`N#Cc1ccc(-c2cc(NC(=O)c3cc(CNCCOC(F)(F)F)cn(C4CC4)c3=O)nc(C3CC3)c2)c(-c2nncn2C(F)F)c1` [Example 9, N-(4-{4-cyano-2-[4-(difluoromethyl)-4H-1,2,4-triazol-3-yl]phenyl}-6-cyclopropyl-2-pyridyl)-1-cyclopropyl-2-oxo-5-[(2-trifluoromethoxyethylamino)methyl]-1,2-dihydronicotinamide]: the EC50 in the assay with Jurkat cells (setting [1]) was below 100 nM. In addition, the IC50 on Cbl-b is below 100 nM.

As to `CC1(NCc2cc(C(=O)Nc3cc(-c4ccc(C#N)cc4-c4nncn4C(F)F)cc(C4CC4)n3)c(=O)n(C3CC3)c2)CCC1` [Example 10, N-(4-{4-cyano-2-[4-(difluoromethyl)-4H-1,2,4-triazol-3-yl]phenyl}-6-cyclopropyl-2-pyridyl)-1-cyclopropyl-5-[(1-methylcyclobutylamino)methyl]-2-oxo-1,2-dihydronicotinamide], in the assay on Jurkat cells (setting [1]), the EC50 was below 100 nM. For the same molecule, the 50% inhibitory concentration (IC50) at Cbl-b is below 100 nM.

As to `N#Cc1ccc(-c2cc(NC(=O)c3cc(CN4C[C@H]5CC[C@@H]4C5)cn(C4CC4)c3=O)nc(C3CC3)c2)c(-c2nncn2C(F)F)c1` [Example 11, N-(4-{4-cyano-2-[4-(difluoromethyl)-4H-1,2,4-triazol-3-yl]phenyl}-6-cyclopropyl-2-pyridyl)-5-({(1R,4S)-2-azabicyclo[2.2.1]hept-2-yl}methyl)-1-cyclopropyl-2-oxo-1,2-dihydronicotinamide], in the assay on Jurkat cells (setting [1]), the EC50 is 100 to 1000 nM. On Cbl-b, the IC50 was below 100 nM.

In the case of `COCC1(NCc2cc(C(=O)Nc3cc(-c4ccc(C#N)cc4-c4nncn4C(F)F)cc(C4CC4)n3)c(=O)n(C3CC3)c2)CCC1` [Example 12, N-(4-{4-cyano-2-[4-(difluoromethyl)-4H-1,2,4-triazol-3-yl]phenyl}-6-cyclopropyl-2-pyridyl)-1-cyclopropyl-5-{[1-(methoxymethyl)cyclobutylamino]methyl}-2-oxo-1,2-dihydronicotinamide], in the assay with Jurkat cells (setting [1]), the EC50 was 100 to 1000 nM. Further, the IC50 on Cbl-b is below 100 nM.

Regarding `COCCNCc1cc(C(=O)Nc2cc(-c3ccc(C#N)cc3-c3nncn3C(F)F)cc(C3CC3)n2)c(=O)n(C2CC2)c1` [Example 14, N-(4-{4-cyano-2-[4-(difluoromethyl)-4H-1,2,4-triazol-3-yl]phenyl}-6-cyclopropyl-2-pyridyl)-1-cyclopropyl-5-[(2-methoxyethylamino)methyl]-2-oxo-1,2-dihydronicotinamide], the EC50 in the assay on Jurkat cells (setting [1]) was below 100 nM. Also, the IC50 on Cbl-b is below 100 nM.

As for `Cn1cnnc1-c1cc(F)ccc1-c1cc(NC(=O)c2cc(CNCCC(F)(F)F)cn(C3CC3)c2=O)nc(C2CC2)c1` [Example 15, N-{6-cyclopropyl-4-[4-fluoro-2-(4-methyl-4H-1,2,4-triazol-3-yl)phenyl]-2-pyridyl}-1-cyclopropyl-2-oxo-5-[(3,3,3-trifluoropropylamino)methyl]-1,2-dihydronicotinamide], in the assay on Jurkat cells (setting [1]), the EC50 is below 100 nM. The molecule also showed an IC50 at Cbl-b below 100 nM.

Take `CO[C@H]1CCN(Cc2cc(C(=O)Nc3cc(-c4ccc(F)cc4-c4nncn4C)cc(C4CC4)n3)c(=O)n(C3CC3)c2)C1` [Example 16, N-{6-cyclopropyl-4-[4-fluoro-2-(4-methyl-4H-1,2,4-triazol-3-yl)phenyl]-2-pyridyl}-5-{[(S)-3-methoxy-1-pyrrolidinyl]methyl}-1-cyclopropyl-2-oxo-1,2-dihydronicotinamide]: the EC50 with Jurkat cells (setting [1]) was 100 to 1000 nM. The concentration for half-maximal inhibition (IC50) on Cbl-b is below 100 nM.
